The values that follow come from ChEMBL document CHEMBL1201862, “PubChem BioAssay data set” (2004).

As usually defined, the IC50 is the concentration at which inhibition is half-maximal.

The source made the active and inactive calls. The rule behind the calls is not given here.

The target in the assay is T1, Exodeoxyribonuclease V (Escherichia coli (strain K12), UniProt P04993+P07648+P08394).
T1 sequence (P04993 whole entry): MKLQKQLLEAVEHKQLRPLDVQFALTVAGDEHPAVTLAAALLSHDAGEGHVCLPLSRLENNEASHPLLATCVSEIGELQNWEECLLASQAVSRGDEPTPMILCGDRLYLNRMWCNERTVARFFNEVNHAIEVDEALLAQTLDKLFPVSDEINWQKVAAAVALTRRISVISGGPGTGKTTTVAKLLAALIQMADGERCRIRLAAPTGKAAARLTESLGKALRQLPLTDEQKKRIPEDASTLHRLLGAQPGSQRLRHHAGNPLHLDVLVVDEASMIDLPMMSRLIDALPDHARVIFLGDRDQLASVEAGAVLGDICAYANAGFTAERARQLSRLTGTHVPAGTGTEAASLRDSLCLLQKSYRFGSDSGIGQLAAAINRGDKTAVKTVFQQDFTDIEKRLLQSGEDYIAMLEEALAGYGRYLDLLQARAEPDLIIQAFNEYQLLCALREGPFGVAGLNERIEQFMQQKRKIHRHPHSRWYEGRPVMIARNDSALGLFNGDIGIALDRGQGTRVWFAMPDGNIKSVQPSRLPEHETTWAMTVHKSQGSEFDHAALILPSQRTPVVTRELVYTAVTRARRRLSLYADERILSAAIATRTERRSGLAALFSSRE
T1 sequence (P07648 whole entry): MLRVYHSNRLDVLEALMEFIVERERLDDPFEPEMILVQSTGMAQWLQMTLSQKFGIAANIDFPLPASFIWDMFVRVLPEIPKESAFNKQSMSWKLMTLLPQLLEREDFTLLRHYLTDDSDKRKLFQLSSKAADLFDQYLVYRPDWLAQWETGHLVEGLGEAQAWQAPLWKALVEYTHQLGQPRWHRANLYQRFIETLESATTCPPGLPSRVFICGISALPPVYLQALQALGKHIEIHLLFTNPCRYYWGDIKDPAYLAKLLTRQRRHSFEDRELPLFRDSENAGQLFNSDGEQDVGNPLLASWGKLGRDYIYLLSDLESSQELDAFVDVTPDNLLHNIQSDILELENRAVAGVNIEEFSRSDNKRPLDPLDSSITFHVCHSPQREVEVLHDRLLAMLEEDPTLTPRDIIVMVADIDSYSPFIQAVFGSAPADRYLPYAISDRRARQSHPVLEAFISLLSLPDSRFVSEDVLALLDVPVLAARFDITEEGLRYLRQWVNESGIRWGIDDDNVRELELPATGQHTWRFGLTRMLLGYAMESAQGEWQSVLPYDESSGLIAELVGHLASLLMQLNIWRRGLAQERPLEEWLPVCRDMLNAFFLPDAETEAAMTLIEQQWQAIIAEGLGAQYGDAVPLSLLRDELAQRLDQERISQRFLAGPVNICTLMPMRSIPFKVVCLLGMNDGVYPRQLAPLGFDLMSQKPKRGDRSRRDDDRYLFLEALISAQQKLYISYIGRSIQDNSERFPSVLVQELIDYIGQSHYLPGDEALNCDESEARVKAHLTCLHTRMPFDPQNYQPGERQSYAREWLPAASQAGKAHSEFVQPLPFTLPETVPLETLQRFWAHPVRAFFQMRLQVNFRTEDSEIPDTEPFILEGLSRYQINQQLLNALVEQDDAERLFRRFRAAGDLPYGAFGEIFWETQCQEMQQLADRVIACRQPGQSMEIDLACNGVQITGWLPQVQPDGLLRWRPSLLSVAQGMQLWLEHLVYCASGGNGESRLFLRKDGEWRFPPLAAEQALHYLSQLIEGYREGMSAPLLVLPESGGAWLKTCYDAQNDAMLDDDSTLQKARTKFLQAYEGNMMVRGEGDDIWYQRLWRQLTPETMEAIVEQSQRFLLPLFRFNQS
T1 sequence (P08394 whole entry): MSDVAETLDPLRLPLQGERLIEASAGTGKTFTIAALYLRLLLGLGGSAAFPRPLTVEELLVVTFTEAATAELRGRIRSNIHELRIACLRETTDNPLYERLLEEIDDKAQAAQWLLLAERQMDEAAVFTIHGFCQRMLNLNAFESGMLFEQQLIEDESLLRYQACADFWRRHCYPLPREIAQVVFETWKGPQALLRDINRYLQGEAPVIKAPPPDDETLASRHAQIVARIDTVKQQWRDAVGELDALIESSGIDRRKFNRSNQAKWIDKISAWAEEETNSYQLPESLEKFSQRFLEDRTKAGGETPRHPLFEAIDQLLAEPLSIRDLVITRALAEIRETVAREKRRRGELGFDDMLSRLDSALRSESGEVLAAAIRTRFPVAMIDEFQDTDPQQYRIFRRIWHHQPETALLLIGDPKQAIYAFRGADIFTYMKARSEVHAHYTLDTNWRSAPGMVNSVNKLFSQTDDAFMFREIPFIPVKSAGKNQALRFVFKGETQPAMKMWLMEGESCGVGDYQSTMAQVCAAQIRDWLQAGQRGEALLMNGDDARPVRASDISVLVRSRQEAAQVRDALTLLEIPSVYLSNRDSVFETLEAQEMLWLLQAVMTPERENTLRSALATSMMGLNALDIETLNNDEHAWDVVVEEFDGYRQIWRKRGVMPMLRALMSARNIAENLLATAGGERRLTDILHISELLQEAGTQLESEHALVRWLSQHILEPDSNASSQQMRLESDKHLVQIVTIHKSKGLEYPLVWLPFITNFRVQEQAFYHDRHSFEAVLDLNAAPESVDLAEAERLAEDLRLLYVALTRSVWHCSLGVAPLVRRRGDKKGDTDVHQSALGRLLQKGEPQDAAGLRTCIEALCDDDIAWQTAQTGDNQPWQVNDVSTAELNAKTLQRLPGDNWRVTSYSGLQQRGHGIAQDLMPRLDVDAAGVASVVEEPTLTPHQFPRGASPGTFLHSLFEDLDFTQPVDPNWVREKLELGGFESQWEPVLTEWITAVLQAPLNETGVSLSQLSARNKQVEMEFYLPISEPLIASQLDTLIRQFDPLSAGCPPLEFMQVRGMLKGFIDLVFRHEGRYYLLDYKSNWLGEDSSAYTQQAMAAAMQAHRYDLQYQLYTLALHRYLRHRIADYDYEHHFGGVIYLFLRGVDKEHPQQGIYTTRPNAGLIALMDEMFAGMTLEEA
As to the kind of experiment: RecBCD inhibition via phage-restricted bacterial growth – absorbance, V66 E. coli, mutant T4 phage, counter-screen for AddAB inhibitor project, dose response (AID 492957). The assay is classed as functional, cell-based, Escherichia coli str. K-12 substr. MG1655. (Counterscreens check selectivity or assay interference.)

In the case of `CCC(=O)NC(c1ccc(C)cc1)c1ccc2cccnc2c1O` (configuration not stated), the IC50 is > 119 µM (inactive).

As for `CCCC(=O)NC(c1ccc(Cl)cc1)c1ccc2cccnc2c1O` (configuration not stated), the IC50 is > 119 µM (inactive).
